Reference: ChEMBL document CHEMBL1201862, “PubChem BioAssay data set” (2004)
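In this assay, cells in 96-well plates receive the compound at five concentrations for 48 hours. Endpoints are linearly interpolated between the surrounding concentrations. Here, GI50 denotes the concentration required for 50% inhibition of growth.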 Active and inactive are the calls of the source. No stated cut-off is given here; in the data, active = GI50 up to about 1.1 µM and inactive = higher.

How the values were obtained:
Experiment in all cases: DTP human tumour cell line panel, 48 h
[1] = tested on: NCI-H460
[2] = tested on: OVCAR-5
[3] = tested on: UO-31
[4] = tested on: A498
[5] = tested on: OVCAR-4
[6] = tested on: KM-20L2
[7] = tested on: SF-539
[8] = tested on: CCRF-CEM
[9] = tested on: UACC-257
[10] = tested on: XF498
[11] = tested on: DLD-1
[12] = tested on: SN12C
[13] = tested on: SF-268
[14] = tested on: U-251
[15] = tested on: NCI-H23
[16] = tested on: 786-0
[17] = tested on: HT-29
[18] = tested on: SK-MEL-5
[19] = tested on: HCC 2998
[20] = tested on: TK-10
[21] = tested on: NCI-H522
[22] = tested on: CAKI-1
[23] = tested on: HL-60
[24] = tested on: LXFL 529
[25] = tested on: SR
[26] = tested on: HOP-62
[27] = tested on: SW-620
[28] = tested on: HOP-92
[29] = tested on: OVCAR-8
[30] = tested on: A549
[31] = tested on: SNB-78
[32] = tested on: SK-MEL-2
[33] = tested on: IGROV-1
[34] = tested on: K562
[35] = tested on: UACC-62
[36] = tested on: COLO 205
[37] = tested on: NCI-H226
[38] = tested on: HCT-116
[39] = tested on: KM12
[40] = tested on: MOLT-4
[41] = tested on: DMS-114
[42] = tested on: DMS-273
[43] = tested on: LOX IMVI
[44] = tested on: HCT-15
[45] = tested on: Malme-3M
[46] = tested on: SNB-19
[47] = tested on: SF-295
[48] = tested on: EKVX
[49] = tested on: ACHN
[50] = tested on: SK-MEL-28
[51] = tested on: OVCAR-3
[52] = tested on: M14
[53] = tested on: RPMI-8226
[54] = tested on: HOP-18
[55] = tested on: M19-MEL

Compound: Cc1cc(C)nc(Nc2nc3cc([N+](=O)[O-])ccc3[nH]2)n1
- GI50 [1]: > 100 µM (inactive)
- GI50 [2]: > 100 µM (inactive)
- GI50 [3]: > 100 µM (inactive)
- GI50 [4]: > 100 µM (inactive)
- GI50 [5]: > 100 µM (inactive)
- GI50 [6]: > 100 µM (inactive)
- GI50 [7]: > 100 µM (inactive)
- GI50 [8]: > 100 µM (inactive)
- GI50 [9]: > 100 µM (inactive)
- GI50 [10]: > 100 µM (inactive)
- GI50 [11]: > 100 µM (inactive)
- GI50 [12]: > 100 µM (inactive)
- GI50 [13]: > 100 µM (inactive)
- GI50 [14]: > 100 µM (inactive)
- GI50 [15]: > 100 µM (inactive)
- GI50 [16]: > 100 µM (inactive)
- GI50 [17]: > 100 µM (inactive)
- GI50 [18]: > 100 µM (inactive)
- GI50 [19]: > 100 µM (inactive)
- GI50 [20]: > 100 µM (inactive)
- GI50 [21]: > 100 µM (inactive)
- GI50 [22]: > 100 µM (inactive)
- GI50 [23]: > 100 µM (inactive)
- GI50 [24]: > 100 µM (inactive)
- GI50 [25]: > 100 µM (inactive)
- GI50 [26]: > 100 µM (inactive)
- GI50 [27]: > 100 µM (inactive)
- GI50 [28]: 31.1 µM (inactive)
- GI50 [29]: > 100 µM (inactive)
- GI50 [30]: > 100 µM (inactive)
- GI50 [31]: > 100 µM (inactive)
- GI50 [32]: > 100 µM (inactive)
- GI50 [33]: > 100 µM (inactive)
- GI50 [34]: > 100 µM (inactive)
- GI50 [35]: > 100 µM (inactive)
- GI50 [36]: > 100 µM (inactive)
- GI50 [37]: > 100 µM (inactive)
- GI50 [38]: > 100 µM (inactive)
- GI50 [39]: > 100 µM (inactive)
- GI50 [40]: > 100 µM (inactive)
- GI50 [41]: > 100 µM (inactive)
- GI50 [42]: > 100 µM (inactive)
- GI50 [43]: > 100 µM (inactive)
- GI50 [44]: > 100 µM
- GI50 [45]: > 100 µM (inactive)
- GI50 [46]: > 100 µM (inactive)
- GI50 [47]: > 100 µM (inactive)
- GI50 [48]: > 100 µM (inactive)
- GI50 [49]: > 100 µM (inactive)
- GI50 [50]: > 100 µM (inactive)
- GI50 [51]: > 100 µM (inactive)
- GI50 [52]: > 100 µM (inactive)
- GI50 [53]: > 100 µM (inactive)

Compound: CC[n+]1c(-c2ccccc2)c2cc(N)ccc2c2ccc(N)cc21
- GI50 [1]: 3.3 µM (inactive)
- GI50 [2]: 29.6 µM (inactive)
- GI50 [5]: 6.68 µM (inactive)
- GI50 [6]: 3.91 µM (inactive)
- GI50 [7]: 1.48 µM (inactive)
- GI50 [9]: 2.65 µM (inactive)
- GI50 [12]: 2.51 µM (inactive)
- GI50 [15]: 1.31 µM (inactive)
- GI50 [19]: 2.67 µM (inactive)
- GI50 [22]: 11.8 µM (inactive)
- GI50 [23]: 4.3 µM (inactive)
- GI50 [24]: 0.668 µM (active)
- GI50 [27]: 2.3 µM (inactive)
- GI50 [54]: 3.59 µM (inactive)
- GI50 [30]: 9.57 µM (inactive)
- GI50 [55]: 1.88 µM (inactive)
- GI50 [33]: 1.42 µM (inactive)
- GI50 [34]: 2.35 µM (inactive)
- GI50 [35]: 1.52 µM (inactive)
- GI50 [36]: 2.12 µM (inactive)
- GI50 [38]: 2.79 µM (inactive)
- GI50 [39]: 2.95 µM (inactive)
- GI50 [40]: 1.64 µM (inactive)
- GI50 [41]: 1.29 µM (inactive)
- GI50 [42]: 0.481 µM (active)
- GI50 [45]: 2.24 µM (inactive)
- GI50 [47]: 3 µM (inactive)
- GI50 [49]: 22.1 µM (inactive)
- GI50 [51]: 3.06 µM (inactive)
